Reference: PMC9124651, “High-performance thin-layer chromatography in combination with an acetylcholinesterase-inhibition bioassay with pre-oxidation of organothiophosphates to determine neurotoxic effects in storm, waste, and surface water” (Analytical and Bioanalytical Chemistry, 2022)

What was measured:
[1] = target: T1, AChE from electric eel (Electrophorus electricus) (Electrophorus electricus, UniProt O42275); assay: Recovery of AChE-I effect peak area in spiked water samples after SPE and HPTLC-Ox-AChE-I (spray); settings: for Recovery of the effect peak area related to positive control (100%): spiked 100 ng OTP, SPE, 10 ng/spot, NBS oxidation, spray, ± SD, n = 4; for AChE-I effect recoveries in comparison to the positive control, range over samples: samples from stormwater retention basin and receiving stream, after SPE and HPTLC-Ox-AChE-I
T1 construct: purchased Sigma-Aldrich GmbH (Steinheim, Germany)
Experimental: The samples were enriched by SPE within 24 h after sampling. Moreover, the field blank and water for a SPE blank were enriched in the same way. For additional matrix investigations, 1 mL malathion, parathion, and chlorpyrifos (100 ng/mL in methanol) were spiked into native samples taken in August 2020 and a water control before being loaded on the SPE cartridges. The cartridges (150 mg, Oasis HLB 6 cc, Waters GmbH, Eschborn, Germany) were conditioned with methanol (2 × 5 mL) and equilibrated with water (2 × 5 mL), before being loaded with 1000 ± 5 mL sample (the exact volume was determined by weighting) through a polytetrafluoroethylene tube. After drying the cartridges under vacuum, they were stored at − 18 °C until further usage. The cartridges were eluted with methanol (5 × 5 mL) that was evaporated afterward at 60 °C under a gentle nitrogen gas stream. The dried extracts were redissolved in 1 mL methanol to achieve a nominal 1000-fold enrichment.
The extracts, spiked samples, positive controls (PC: mix of malathion, parathion, and chlorpyrifos), and blanks were tested with the HPTLC-Ox-AChE-I method as described in the “Combination of HPTLC and AChE-inhibition assay” section. Each sample was tested in duplicates on two HPTLC plates (n = 4). The application volume was 100 µL resulting in a PC of 2000 ng/spot. The resulting amounts for the matrix investigation were 1000 and 10 ng/spot for the PCs and 10 ng/spot for the spiked samples. The matrix investigation was performed with and without the oxidation step. Excel was used to relate the peak areas of the spiked samples to the peak areas of the PCs (10 ng/spot). Differences between both approaches (oxidation and no oxidation) were shown by comparing the results of the spiked samples and PCs.

[2] = target: T1, AChE from electric eel (Electrophorus electricus); assay: HPTLC-(Ox)-AChE-I assay, spray method (AChE sprayed onto plates); format: biochemical
Experimental: (§1) LiChrospher 10 × 20 cm HPTLC Silica gel 60 F254s plates (Merck, Darmstadt, Germany) with a layer thickness of 170–190 µm and spherical silica particles with a size of 7 µm were used. The HPTLC plates were immersed twice in 2-propanol for 20 min, each time followed by a drying step at room temperature for 20 min. The plates then were pre-developed with methanol, dried for 20 min at room temperature, heated at 105 °C for 20 min, and stored in a desiccator for further use. The automatic TLC Sampler 4 (ATS 4, CAMAG AG, Muttenz, Switzerland) was used for sample application. The desired sample volumes were sprayed as 6-mm-wide bands onto the HPTLC plates with an application speed of 300 nL/s. The distances of the exterior bands from the edges of the plates were 15 mm. The distance from the bottom edge was 8 mm for all bands. Methanol was used as rinsing solvent. The following further application parameters were used: filling speed 15 µL/s, pre-dosage volume 200 nL, retraction volume 200 nL, rinsing vacuum time 4 s, filling vacuum time 0 s, rinsing cycles 2, and filling cycles 1. The development of the HPTLC plates was realized by the Automated Multiple Development 2 (AMD 2, CAMAG, Muttenz, Switzerland). The OTPs, their oxons, and environmental samples were separated with an eluent mixture of cyclohexane, dichloromethane, and acetone in different proportions and with increasing migration distances (Fig. S2). After each development step, a drying step of 3 min under vacuum followed. The final migration distance was 80 mm and the whole procedure took approximately 45 min. In addition, a simpler development process was used containing only the last step of the previous described method.
(§2) The following AChE-I assay was performed in parts according to Mendoza et al., Stütz et al., and Weins and Jork. AChE was buffered in TRIS/HCl at a pH of 7.8 (2.5 U/mL). The AChE solution was either sprayed onto the HPTLC plates with a glass reagent sprayer until the plates were evenly moist (approx. 10 mL) or the plates were immersed in the AChE solution using the Chromatogram Immersion Device 3 (CID 3, CAMAG, Muttenz, Switzerland). The immersion volume, speed, time, and depth were approx. 200 mL, 2.5 cm/s, 2 s, and approx. 85 mm, respectively. Afterward, the plates were placed separately in closed plastic boxes, which contained paper towels moistened with water to gain a saturated atmosphere. An incubation at 37 °C for 5 min followed. The substrate indoxyl acetate was freshly prepared in methanol at a concentration of 20 mg/mL and 5 mL was sprayed onto the HPTLC plates with a glass reagent sprayer. During 45-min incubation time at room temperature, AChE cleaves the substrate into indoxyl and acetate. The indoxyl reacts with oxygen to the blue indigo dye. When AChE was inhibited, no indigo was produced and the spot stayed white. The TLC Scanner 3 (CAMAG, Muttenz, Switzerland) was used to scan each track on the plates at 670 nm using the fluorescence mode without optical filter. The CAMAG-embedded software Wincats (Vers. 1.4.9) was used to provide chromatograms of each track and to evaluate inhibition zones.
Several amounts of an OTP mix and an oxon mix were applied on HPTLC plates (Tab. S2) and tested as described in the “Combination of HPTLC and AChE-inhibition assay” section. Three plates were used for each dilution series. The application volume was 10 µL for investigating OTPs with following oxidation and 100 µL for testing OTPs without following oxidation. The application volume for the oxons was 10 µL. They were tested without oxidation step also in triplicates. The peak heights were used for evaluation. Only peaks that have a signal-to-noise ratio ≥ 3 were considered in the evaluation. The height next to the respective peak defines the noise.

[3] = target: T1, AChE from electric eel (Electrophorus electricus); assay: HPTLC-(Ox)-AChE-I assay, immersion method (plates immersed in AChE solution); format: biochemical; settings: without oxidation
Experimental: as §1
as §2, with “After chromatographic development, 10 mL of freshly prepared NBS (100 µg/mL) was sprayed onto the HPTLC plates with a glass reagent sprayer, followed by a 5-min incubation at room temperature. The following” for “The following”
Several amounts of an OTP mix and an oxon mix were applied on HPTLC plates (Tab. S2) and tested as described in the “Combination of HPTLC and AChE-inhibition assay” section. Three plates were used for each dilution series. The application volume was 10 µL for investigating OTPs with following oxidation and 100 µL for testing OTPs without following oxidation. The application volume for the oxons was 10 µL. They were tested without oxidation step also in triplicates. The peak heights were used for evaluation. Only peaks that have a signal-to-noise ratio ≥ 3 were considered in the evaluation. The height next to the respective peak defines the noise. […]

[4] = Spiked water (ultrapure water control)
[5] = sampling point Stormwater basin
[6] = spray method, without oxidation
[7] = spray method, without oxidation, OTPs 100 µL, oxons 10 µL applied, peak heights, n = 3
[8] = OTPs 100 µL, oxons 10 µL applied, peak heights, n = 3

T1 sequence (O42275 24-633): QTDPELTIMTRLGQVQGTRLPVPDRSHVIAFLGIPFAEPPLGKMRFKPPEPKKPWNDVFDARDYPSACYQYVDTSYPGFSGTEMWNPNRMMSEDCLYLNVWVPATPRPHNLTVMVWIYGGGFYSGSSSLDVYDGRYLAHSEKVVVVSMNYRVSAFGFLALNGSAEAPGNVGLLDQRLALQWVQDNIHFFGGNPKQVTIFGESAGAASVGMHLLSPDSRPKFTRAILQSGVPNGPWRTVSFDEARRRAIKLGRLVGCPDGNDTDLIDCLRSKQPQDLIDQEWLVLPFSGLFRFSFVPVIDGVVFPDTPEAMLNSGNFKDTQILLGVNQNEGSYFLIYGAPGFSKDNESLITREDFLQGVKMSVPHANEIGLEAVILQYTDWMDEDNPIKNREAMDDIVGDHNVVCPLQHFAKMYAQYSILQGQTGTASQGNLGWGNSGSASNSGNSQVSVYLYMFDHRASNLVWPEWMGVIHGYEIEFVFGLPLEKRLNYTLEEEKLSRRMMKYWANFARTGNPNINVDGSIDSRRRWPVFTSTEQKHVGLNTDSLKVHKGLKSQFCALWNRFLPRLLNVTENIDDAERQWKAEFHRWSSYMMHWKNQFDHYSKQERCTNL

| SMILES | Recovery of the effect peak area related to positive control (100%) [1, 4] | AChE-I effect recoveries in comparison to the positive control, range over samples [1] | Recovery of the effect peak area related to positive control (100%) ([1]; sampling point Downstream) | Recovery of the effect peak area related to positive control (100%) [1, 5] | Recovery of the effect peak area related to positive control (100%) ([1]; sampling point Upstream) | LOD spray method (first detected AChE-I peak with signal-to-noise ratio ≥ 3) [2, 6] | LOD immersion method (first detected AChE-I peak with signal-to-noise ratio ≥ 3) [3] | Effect of higher NBS concentration on AChE on the HPTLC plate ([2]; 1 mg/mL NBS tested for oxidation on HPTLC plate, application method not stated) | IC10 (10% AChE inhibition), best fit [2, 7] | IC20 (20% AChE inhibition), best fit [2, 7] | IC50 (50% AChE inhibition), best fit [2, 7] | IC80 (80% AChE inhibition), best fit [2, 7] | IC10 (10% AChE inhibition), best fit [3, 8] | IC20 (20% AChE inhibition), best fit [3, 8] | IC50 (50% AChE inhibition), best fit [3, 8] | IC80 (80% AChE inhibition), best fit [3, 8] |
| --- | --- | --- | --- | --- | --- | --- | --- | --- | --- | --- | --- | --- | --- | --- | --- | --- |
| CCOP(=S)(OCC)Oc1ccc([N+](=O)[O-])cc1 [Parathion, parathion] | 74 ± 3% | 75–82% | 79 ± 13% | 75 ± 9% | 82 ± 10% | 100 ng/spot | 500 ng/spot |  |  |  |  |  |  |  |  |  |
| O=C1CCC(=O)N1Br [NBS, N-Bromosuccinimide] |  |  |  |  |  |  |  | lower activity or inhibition of AChE |  |  |  |  |  |  |  |  |
| CCOP(=S)(OCC)Oc1nc(Cl)c(Cl)cc1Cl [Chlorpyrifos, chlorpyrifos] | 63 ± 4% | 69–78% | 69 ± 5% | 74 ± 5% | 78 ± 7% | 250 ng/spot | 500 ng/spot |  |  |  |  |  |  |  |  |  |
| CCOC(=O)CC(SP(=S)(OC)OC)C(=O)OCC (centres unmarked) [Malathion, malathion] | 85 ± 6% |  | 87 ± 12% | 81 ± 8% | 92 ± 11% | 250 ng/spot | 250 ng/spot |  | 212 ng/spot | 493 ng/spot | 2096 ng/spot | 8910 ng/spot | 313 ng/spot | 536 ng/spot | 1343 ng/spot | 3363 ng/spot |
